{"source": "patent US20240247318A1", "about": "“METHODS FOR DETECTING INACTIVATION OF THE HOMOLOGOUS REC[…] (BRCA1/2) IN HUMAN TUMORS” (Institute Curie, priority 2012, published 2024)", "tested_on": "triple-negative breast tumors", "assay": "clinical trial of Cisplatin treatment of patients with triple-negative breast tumors (GSE28330)", "type": "in vivo, human", "conditions": "number of patients", "description": "Two publically available data sets from clinical trial of Cisplatin treatment of patients with triple-negative breast tumors [GSE28330 GEO database][59] were processed and the number of LST_10 Mb was calculated for each tumor with good quality of measured profile. Genomic profiles were measured by two types of chip: Affymetrix Oncoscan 70K (Dataset 2) and Oncoscan 300K (Dataset 1). Information about mutational status of BRCA1/2 was available for some tumors. Response to treatment was measured by Miller-Payne score, where 4 and 5 were considered as “positive response”, while scores<4 were considered as “no response” Case by case and summary results are presented in Table 2 and Tables 3-5 (statistical comparisons were performed by the Fisher exact test).", "data": [{"smiles": "N.N.[Cl][Pt][Cl]", "note": "[Cisplatin, cisplatin]", "values": [{"measurement": "Non Responders", "setting": "BRCA1/2 inactivated tumors", "value": 8}, {"measurement": "Responders", "setting": "BRCA1/2 inactivated tumors", "value": 9}, {"measurement": "Non Responders", "setting": "LST_high tumors (LST_10 Mb)", "value": 15}, {"measurement": "Responders", "setting": "LST_high tumors (LST_10 Mb)", "value": 18}, {"measurement": "Non Responders", "setting": "LST_low tumors (LST_10 Mb)", "value": 20}, {"measurement": "Responders", "setting": "LST_low tumors (LST_10 Mb)", "value": 1}, {"measurement": "Non Responders", "setting": "NON BRCA1/2 or NA tumors", "value": 27}, {"measurement": "Responders", "setting": "NON BRCA1/2 or NA tumors", "value": 10}]}]}
